Reference: patent US20060241183A1, “Compositions and methods of using D-DOPA to treat Parkinson's disease” (priority 2004, published 2006)

What was measured:
[1] = tested on: urinary excretion of dopamine; settings: D- and L-DOPA 50 mg/kg; cited from earlier work
[2] = tested on: striatal dopamine and its metabolites (DOPAC and HVA); experiment: Striatal dopamine, DOPAC and HVA after intraventricular administration of L-DOPA, D-DOPA or DHPPA; format: in vivo, Sprague-Dawley rats; settings: for Striatal DOPAC / Striatal Dopamine / Striatal HVA: intraventricular, 10 μl, 2 h after treatment, mean ± S.E.M.
Experimental: The present example illustrates the possible involvement of DHPPA in the formation of dopamine from D-DOPA. […] In an attempt to examine an alternate pathway, four groups of Sprague-Dawley rats weighing 120-150 grams with cannulae permanently implanted into their lateral ventricles, according to the procedure described in Robinson et al., Physiol. Behav. 4, 123-124, (1969), were used. One group received 10 μl. of saline into the ventricles. The second, third and fourth groups received, intraventricularly, 200.μ.g of L-DOPA, D-DOPA and 3,4-dihydroxyphenylpyruvic acid (DHPPA) in 10 μl of saline, respectively. The rats were sacrificed two hours after treatment and their striata removed and analyzed. Striatal concentrations of dopamine, DOPAC and HVA were measured by massfragmentography according to the procedure set forth in Karoum, Neuromethods.

[3] = biological target: T1, L-amino acid decarboxylase (Homo sapiens, UniProt P20711); settings: cited from earlier work
T1 sequence (P20711 1-480): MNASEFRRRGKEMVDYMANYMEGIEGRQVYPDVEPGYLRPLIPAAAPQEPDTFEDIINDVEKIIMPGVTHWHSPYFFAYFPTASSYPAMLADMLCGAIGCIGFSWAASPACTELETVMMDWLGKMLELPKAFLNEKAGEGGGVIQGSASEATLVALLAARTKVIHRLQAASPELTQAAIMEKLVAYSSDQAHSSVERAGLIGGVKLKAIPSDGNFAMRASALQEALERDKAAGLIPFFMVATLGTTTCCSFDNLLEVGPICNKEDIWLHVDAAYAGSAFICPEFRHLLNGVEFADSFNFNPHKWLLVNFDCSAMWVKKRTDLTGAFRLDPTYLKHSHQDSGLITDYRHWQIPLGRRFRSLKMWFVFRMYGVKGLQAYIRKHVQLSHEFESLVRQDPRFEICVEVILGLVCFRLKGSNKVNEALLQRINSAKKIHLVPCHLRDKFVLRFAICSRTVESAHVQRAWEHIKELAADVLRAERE

circling = settings: rats with unilateral 6-hydroxydopamine lesion; cited from earlier work
[4] = tested on: striatal concentration of dopamine, DOPAC and HVA; experiment: Striatal dopamine, DOPAC and HVA after intragastric D- or L-DOPA plus carbidopa in rats with unilateral substantia nigra lesions; format: in vivo, male Sprague-Dawley Rats; settings: for time for formation of dopamine in the striatum to reach its maximum concentration: after intragastric administration, inferred from DOPAC and HVA in lesion striata; for time to achieve maximum concentration of dopamine in the central nervous system: following intragastric administration; for increase of dopamine and its metabolites in the intact striata, D- versus L-DOPA / time at which dopamine content in the intact striata peaked / change of dopamine concentrations in the lesion striata: intragastric administration; for change of concentrations of DOPAC and HVA in the lesion striata: one hour after treatment
Source text: The present example illustrates the efficacy of the administration of D-DOPA of L-DOPA in vivo. In order to show the effectiveness of D-DOPA for increasing striatal dopamine content, male Sprague-Dawley Rats (Zivic-Miller, Allison Park, Pa.) weighing 300 to 400 grams were used. At least four weeks prior to the experiments, unilateral Substantia Nigra lesions were produced with intranigral administration of 6-hydroxydopamine according to the procedures set forth in Ungerstedt, Acta Physiol. Scand. (Suppl.) 367, 69 (1971).
The extent of unilateral Substantia Nigra lesions was tested by measuring apomorphine simulated rotation according to the procedures described in Understedt, supra, 1971; Freed et al. Ann. Neurol. 8, 510 (1980).
Either D- or L-DOPA was intragastrically administered to the rats in combination with carbidopa at doses of 50 mg/kg body weight of D-DOPA or L-DOPA and 5 mg/kg body weight of carbidopa, suspended in sterile water, to provide a pharmaceutically acceptable solution for administration. D- or L-DOPA was intragastrically administered to groups of five rats, which were sacrificed one or two hours after treatment. The left (intact) and right (lesioned) striata of these rats were excised and analyzed separately for the content of dopamine and its metabolites 3,4-dihydroxyphenylacetic acid (DOPAC) and homovanillic acid (HVA), according to the procedure as set forth in Karoum, Neuromethods, Vol. 2 (G. B. Baker, A. A. Boulton and J. M. Baker eds.), The Humana Press, Inc., New Jersey, page 305, 1985 (referred to hereafter as “Karoum, Neuromethods”).

[5] = tested on: striatal dopamine or its metabolites; experiment: Repeated intragastric administration of DHPPA plus carbidopa, striatal dopamine and metabolites; format: in vivo; settings: concluded from repeated intragastric administration
hypothalamic dopamine = experiment: Hypothalamic dopamine and metabolites after intragastric D- and L-DOPA; format: in vivo; settings: after intragastric administration
Source text: DHPPA can be formed from D-DOPA by either of two pathways, that is, direct transamination, or through deamination by D-amino acid oxidase, an enzyme widely distributed in the brain. The pattern of changes of striatal dopamine and its metabolites observed after intragastric administration of D- and L-DOPA are similar to those observed in the hypothalamus.

Row | SMILES | reduction of urinary excretion of dopamine following D-DOPA compared with co-administration with L-DOPA [1] | Striatal DOPAC [2] [ng/mg protein] | Striatal Dopamine [2] [ng/mg protein] | Striatal HVA [2] [ng/mg protein] | substrate for L-amino acid decarboxylase [3] | induction of circling (circling) | time for formation of dopamine in the striatum to reach its maximum concentration [4] | time to achieve maximum concentration of dopamine in the central nervous system [4] [h] | increase of dopamine and its metabolites in the intact striata, D- versus L-DOPA [4] | time at which dopamine content in the intact striata peaked [4] | change of dopamine concentrations in the lesion striata [4] | change of concentrations of DOPAC and HVA in the lesion striata [4] | elevations of dopamine and DOPAC compared with D- or L-DOPA ([2]; intraventricular administration) | crossing of the blood brain barrier [5] | increases in hypothalamic DOPAC and HVA, L-DOPA versus D-DOPA (hypothalamic dopamine)
1 | C[C@@](Cc1ccc(O)c(O)c1)(NN)C(=O)O [Carbidopa, carbidopa] | to a far greater degree |  |  |  |  |  |  |  |  |  |  |  |  |  | 
2 | N[C@H](Cc1ccc(O)c(O)c1)C(=O)O [D-DOPA] |  | 19 ± 0.92 | 116 ± 5.1 | 4.8 ± 0.50 | not a substrate | can induce circling | within one hour | 2 | to about the same extent | two hours | Neither D- nor L-DOPA increased dopamine concentrations | markedly increased |  |  | 
3 | O=C(O)C(=O)Cc1ccc(O)c(O)c1 [DHPPA, 3,4-dihydroxyphenylpyruvic acid] |  | 96 ± 16.6 | 140 ± 11.0 | 23.3 ± 3.53 |  |  |  |  |  |  |  |  | larger elevations | does not easily cross the blood brain barrier | 
4 | N[C@@H](Cc1ccc(O)c(O)c1)C(=O)O [L-DOPA] |  | 59 ± 9.49 | 120 ± 7.4 | 22.2 ± 1.60 |  |  | within one hour | 1 | to about the same extent | one hour | Neither D- nor L-DOPA increased dopamine concentrations | markedly increased |  |  | considerably higher
